According to patent US8754242B2, “Herbicides” (Syngenta Crop Protection LLC, priority 2007, dated 2014):

How the values were obtained:
Format in all cases: in vivo
[1] = tested on: Alopecurus myosuroides (ALOMY); test: Test Example 1 pre-emergence herbicidal activity; conditions: Alopecurus myosuroides, 480 h, rate 250 g/ha, evaluated 20 days later, read-out: Pre-emergence activity ALOMY (100=total damage to plant; 0=no damage to plant)
In short: (§1)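 Once sown in standard soil, pots received an aqueous spray of the formulated active ingredient, either after one day or after ten days of controlled glasshouse growth. Plants then grew under optimum greenhouse conditions. Herbicidal effect was assessed visually 15 (post-emergence) or 20 (pre-emergence) days later, 100 meaning total plant damage.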

Avena fatua (AVEFA) [2] = test: Test Example 1 pre-emergence herbicidal activity; conditions: Avena fatua, 480 h, rate 250 g/ha, evaluated 20 days later, read-out: Pre-emergence activity AVEFA (100=total damage to plant; 0=no damage to plant)
In short: as §1

[3] = tested on: Digitaria sanguinalis (DIGSA); test: Test Example 1 pre-emergence herbicidal activity; conditions: Digitaria sanguinalis, 480 h, rate 250 g/ha, evaluated 20 days later, read-out: Pre-emergence activity DIGSA (100=total damage to plant; 0=no damage to plant)
In short: as §1

[4] = tested on: Echinochloa crus-galli (ECHCG); test: Test Example 1 pre-emergence herbicidal activity; conditions: Echinochloa crus-galli, 480 h, rate 250 g/ha, evaluated 20 days later, read-out: Pre-emergence activity ECHCG (100=total damage to plant; 0=no damage to plant)
In short: as §1

Lolium perenne (LOLPE) [5] = test: Test Example 1 pre-emergence herbicidal activity; conditions: Lolium perenne, 480 h, rate 250 g/ha, evaluated 20 days later, read-out: Pre-emergence activity LOLPE (100=total damage to plant; 0=no damage to plant)
In short: as §1

Setaria faberi (SETFA) [6] = test: Test Example 1 pre-emergence herbicidal activity; conditions: Setaria faberi, 480 h, rate 250 g/ha, evaluated 20 days later, read-out: Pre-emergence activity SETFA (100=total damage to plant; 0=no damage to plant)
In short: as §1

[7] = tested on: Alopecurus myosuroides (ALOMY); test: Test Example 1 post-emergence herbicidal activity; conditions: 360 h, rate 125 g/ha, evaluated 15 days later, read-out: Post-emergence activity ALOMY (100=total damage to plant; 0=no damage to plant)
In short: as §1

Avena fatua (AVEFA) [8] = test: Test Example 1 post-emergence herbicidal activity; conditions: 360 h, rate 125 g/ha, evaluated 15 days later, read-out: Post-emergence activity AVEFA (100=total damage to plant; 0=no damage to plant)
In short: as §1

[9] = tested on: Digitaria sanguinalis (DIGSA); test: Test Example 1 post-emergence herbicidal activity; conditions: 360 h, rate 125 g/ha, evaluated 15 days later, read-out: Post-emergence activity DIGSA (100=total damage to plant; 0=no damage to plant)
In short: as §1

[10] = tested on: Echinochloa crus-galli (ECHCG); test: Test Example 1 post-emergence herbicidal activity; conditions: 360 h, rate 125 g/ha, evaluated 15 days later, read-out: Post-emergence activity ECHCG (100=total damage to plant; 0=no damage to plant)
In short: as §1

Lolium perenne (LOLPE) [11] = test: Test Example 1 post-emergence herbicidal activity; conditions: 360 h, rate 125 g/ha, evaluated 15 days later, read-out: Post-emergence activity LOLPE (100=total damage to plant; 0=no damage to plant)
In short: as §1

Setaria faberi (SETFA) [12] = test: Test Example 1 post-emergence herbicidal activity; conditions: 360 h, rate 125 g/ha, evaluated 15 days later, read-out: Post-emergence activity SETFA (100=total damage to plant; 0=no damage to plant)
In short: as §1

| SMILES | pest or weed control at 250 g/ha [1] [%] | pest or weed control at 250 g/ha (Avena fatua (AVEFA) [2]) [%] | pest or weed control at 250 g/ha [3] [%] | pest or weed control at 250 g/ha [4] [%] | pest or weed control at 250 g/ha (Lolium perenne (LOLPE) [5]) [%] | pest or weed control at 250 g/ha (Setaria faberi (SETFA) [6]) [%] | pest or weed control at 125 g/ha [7] [%] | pest or weed control at 125 g/ha (Avena fatua (AVEFA) [8]) [%] | pest or weed control at 125 g/ha [9] [%] | pest or weed control at 125 g/ha [10] [%] | pest or weed control at 125 g/ha (Lolium perenne (LOLPE) [11]) [%] | pest or weed control at 125 g/ha (Setaria faberi (SETFA) [12]) [%] |
| --- | --- | --- | --- | --- | --- | --- | --- | --- | --- | --- | --- | --- |
| Cc1cc(C)c(C2=C(O)[C@@H]3[C@@H]4O[C@@H](C[C@H]4c4cnc5ccccc5n4)[C@@H]3C2=O)c(C)c1 [Example T188] | 40 | 0 | 100 | 60 | 50 | 70 | 80 | 70 | 100 | 100 | 30 | 70 |
| Cc1ccc([C@@H]2C[C@@H]3O[C@H]2[C@H]2C(O)=C(c4c(C)cc(C)cc4C)C(=O)[C@H]23)cc1 (racemic) [Example T71] | 30 | 0 | 50 | 50 | 0 | 20 | 50 | 10 | 70 | 60 | 20 | 50 |
| CCc1cc(C)cc(CC)c1C1=C(O)[C@@H]2[C@@H]3O[C@@H](C[C@H]3c3cccc(C(C)=O)c3)[C@@H]2C1=O (racemic) [Example T174] | 30 | 30 | 40 | 0 | 30 | 0 | 70 | 70 | 70 | 80 | 40 | 50 |
| CC#CCOC(=O)OC1=C(c2c(CC)cc(C)cc2CC)C(=O)[C@@H]2[C@H]1[C@H]1CC[C@@H]2O1 (racemic) [Example P15] | 80 | 90 | 100 | 100 | 90 | 100 | 100 | 90 | 80 | 100 | 90 | 80 |
| Cc1cc(C)c(C2=C(O)[C@H]3[C@@H](C2=O)[C@@H]2C=C(CO)[C@@]3(C)O2)c(C)c1 [Example T58] | 0 | 10 | 0 | 60 | 0 | 0 | 0 | 10 | 40 | 30 | 0 | 30 |
| Cc1cc(C)c(C2=C(O)[C@@H]3[C@@H]4O[C@@H](C[C@H]4c4nc(C)cnc4C)[C@@H]3C2=O)c(C)c1 [Example T193] | 20 | 30 | 20 | 20 | 60 | 40 | 60 | 40 | 60 | 60 | 30 | 30 |
| C=C[C@@H]1C[C@@H]2O[C@H]1[C@H]1C(O)=C(c3c(C)cc(C)cc3C)C(=O)[C@H]12 (racemic) [Example T99] | 80 | 60 | 80 | 100 | 100 | 80 | 80 | 30 | 60 | 100 | 10 | 70 |
| CCc1nc2ccccc2nc1[C@@H]1C[C@@H]2O[C@H]1[C@H]1C(O)=C(c3c(C)cc(C)cc3C)C(=O)[C@H]12 [Example T194] | 0 | 20 | 70 | 50 | 20 | 50 | 30 | 0 | 70 | 80 | 20 | 0 |
| Cc1cc(C)c(C2=C(O)[C@H]3[C@@H](C2=O)[C@@H]2C=C[C@@]3(CSC(C)C)O2)c(C)c1 (racemic) [Example T43] | 10 | 20 | 20 | 0 | 0 | 50 | 10 | 0 | 20 | 60 | 0 | 40 |
| CCc1cc(C)cc(CC)c1C1=C(O)[C@@H]2[C@@H]3O[C@@H](C[C@H]3c3cc([N+](=O)[O-])ccc3C)[C@@H]2C1=O (racemic) [Example T184] | 30 | 60 | 70 | 60 | 70 | 90 | 10 | 0 | 20 | 100 | 10 | 50 |
| COC[C@H]1C[C@@H]2O[C@H]1[C@H]1C(O)=C(c3c(C)cc(C)cc3C)C(=O)[C@H]12 [Example T47] | 100 | 80 | 70 | 100 | 100 | 80 | 100 | 90 | 60 | 100 | 90 | 70 |
| CCc1cc(C)cc(CC)c1C1=C(OC(=O)C2CCCCC2)[C@H]2[C@@H](C1=O)[C@@H]1CC[C@H]2O1 (racemic) [Example P17] | 90 | 90 | 100 | 100 | 100 | 100 | 100 | 90 | 100 | 100 | 100 | 100 |
| CCc1cc(C)cc(CC)c1C1=C(OC(=O)C2CC2)[C@H]2[C@@H](C1=O)[C@@H]1CC[C@H]2O1 (racemic) [Example P21] | 100 | 100 | 100 | 100 | 100 | 100 | 90 | 100 | 80 | 100 | 100 | 100 |
